Results reported in patent US6218384A, “3-Oxo-pyrido(1,2-a)benzimidazole-4-carboxyl and 4-oxo-azepino(1,2-a)benzimidazole-5-carboxyl derivatives useful in treating central nervous system disorders” (Ortho-McNeil Pharmaceutical, Inc., priority 1997, dated 2001).
Read-outs that look alike come from different tables or passages of the source.

Key:
[1] = Suppression of anxiety (punished licking, conflict test) in the adult male rat; assay type: in vivo, male rats
Experimental: The anxiolytic activity of selected compounds of the invention was assessed by determining their ability to release (disinhibit) behavior that had been suppressed by punishment (Vogel, J. R. et al. Psychopharmacology 1971, 21, 1). Male rats were deprived of water for 48 hours and were deprived of food for 24 hours prior to testing. After the first 24 hours of water deprivation, they were placed in the conflict chamber for a training period; wherein, they were allowed 200 unpunished licks from a bottle containing tap water. The experiment was run the next day. At the expected time of peak activity, the animals were placed in the chamber and allowed access to tap water. […] Their first lick initiates a 3-min test session. Subsequently,every 20th lick was punished by a 0.2-s shock delivered via the stainless-steel drinking-tube. Vehicle-treated control animals generally were willing to accept a median number of 3 to 8 shocks per test session. […] The Wilcoxon rank-sum test (Mann-WhitneyU-test) was used to test for an increase (p<0.05, 1-tailed) in the median number of shocks in drug-treated groups, compared to a concurrently run vehicle-treated group. The biological assay is considered to be valid if the effects of a known anxiolytic (positive control) are detected, within the same experiment. A compound was considered active if there is a significant difference in the median number of shocks tolerated between the drug-treated group and the control group. The MED was defined as the minimum dose of the drug-treatment as analyzed using the Wilcoxon rank-sum test (SAS; Statistical Analysis System, version 5.16). If the MED value is greater than 10, an active dose of the compound being tested had not been determined.

[2] = Suppression of metrazol-induced convulsions; assay type: in vivo, male CD1 mice; conditions: mice; for ED50: Mus musculus, 0.5 h
Experimental: Selected compounds of the invention were tested for their ability to reduce metrazol-induced convulsions in mice (Swinyard, E. A. J. Am. Pharm Assoc. 1949, 38, 201). Male CD1 mice, were fasted at least 16 hours, were divided into equal groups and test compounds or vehicle were administered parenterally. Water was not withheld except during the period of observations. At the time of suspected peak activity, anti-pentylenetetrazol (anti-metrazol) activity was evaluated by the subcutaneous administration of the CD90 dose of metrazol (the dose of metrazol was determined from the dose-response curve producing clonic convulsions in 90% of animals that received the corresponding vehicle for this experiment). Metrazol was dissolved in 0.9% sodium chloride solution, and its dose volume was 10 ml/kg. Animals were housed individually for observation of clonic convulsions, tonic convulsions and death for a period of 30 min. Test compounds that blocked the clonic seizure component of the convulsion in at least 50% of the animals were considered active. The biological assay was considered to be valid if the effects of a known anticonvulsant (positive control) were detected, within the same experiment. Activity was reported as percent reduction of clonic convulsions from the vehicle group. The ED50 values of active compounds were calculated by the method of probits (Finney, D. J. 1971. Probit Analysis. London: Cambridge University Press) and are listed in Tables 1 to 5.

[3] = target: benzodiazepine site of the GABA-A receptor; experiment: Benzodiazepine Receptor Binding Assay (inhibition of 3H-flunitrazepam binding); conditions: ca. 3 nM 3H-flunitrazepam
[4] = Table 1, ip, minimum effective dose, >10 = active dose not determined, read-out: Conflict (ip) MED
[5] = Table 1, ip, clonic convulsions after sc CD90 metrazol, >30 = active dose not determined, read-out: Metrazol (ip) ED50
[6] = Table 1, 25° C., 10-20 min, >10,000 = not active
[7] = Table 5, minimum effective dose, read-out: Conflict MED
[8] = Table 5, parenteral, clonic convulsions, read-out: Antimetrazol ED50
[9] = Table 3, minimum effective dose, read-out: Conflict MED
[10] = Table 3, parenteral, clonic convulsions, read-out: Antimetrazol ED50
[11] = Table 4, minimum effective dose, read-out: Conflict MED
[12] = Table 4, parenteral, clonic convulsions, read-out: Antimetrazol ED50

Compound | minimal effective dose [1, 4] | ED50 [2, 5] | IC50 [3, 6] | further results
O=C1CCN2C(=C1C(=O)Nc1ccc3cn[nH]c3c1)Nc1ccccc12 [compound 48] | 10 mg/kg | > 30 mg/kg | 350 nM | –
O=C1CCN2C(=C1C(=O)Nc1ccc(C(=O)O)cc1)Nc1ccccc12 [compound 28] | 10 mg/kg | > 30 mg/kg | > 10000 nM | –
O=C1CCCN2C(=C1C(=O)Nc1ccncc1)Nc1ccccc12 [compound 152] | – | – | – | minimal effective dose [1, 7]: < 10 mg/kg; ED50 [2, 8]: > 10 mg/kg; IC50 ([3]; Table 5): 1460 nM
O=C1CCN2C(=C1C(=O)Nc1c(F)c(F)c(F)c(F)c1F)Nc1ccccc12 [compound 91] | 10 mg/kg | 1 to 10 mg/kg | 270 nM | –
O=C1CCN2C(=C1C(=O)Nc1ccc(F)c(F)c1F)Nc1ccccc12 [compound 96] | > 10 mg/kg | > 10 mg/kg | 1500 nM | –
O=C1CCN2C(=C1C(=O)Nc1ccc3ncsc3c1)Nc1ccccc12 [compound 72] | < 10 mg/kg | > 10 mg/kg | 10000 nM | –
CSc1cc(N(C)C)ccc1NC(=O)C1=C2Nc3ccccc3N2CCC1=O [compound 79] | > 10 mg/kg | > 10 mg/kg | 660 nM | –
O=C1CCN2C(=C1C(=O)Nc1ccncc1)Nc1ccccc12 [compound 35] | 3 mg/kg | 2 mg/kg | 160 nM | –
CCN1C2=C(C(=O)Nc3ccc(N(C)C)cc3)C(=O)CCN2c2ccccc21 [compound 125] | – | – | – | minimal effective dose [1, 9]: > 10 mg/kg; ED50 [2, 10]: 0.3 mg/kg; IC50 ([3]; Table 3): 72 nM
CN(C)c1ccc(NC(=O)C2=C3Nc4ccccc4N3CCCC2=O)cc1 [compound 149] | – | – | – | minimal effective dose [1, 7]: > 10 mg/kg; ED50 [2, 8]: > 10 mg/kg; IC50 ([3]; Table 5): 1120 nM
O=C1CCN2C(=C1C(=O)NC1CCC1)Nc1ccccc12 [compound 83] | 10 mg/kg | > 30 mg/kg | 30 nM | –
O=C1CCN2C(=C1C(=O)Nc1ccc3[nH]ccc3c1)Nc1ccccc12 [compound 30] | > 10 mg/kg | > 30 mg/kg | 530 nM | –
CN1C2=C(C(=O)Nc3ccccc3)C(=O)CCCN2c2ccccc21 [compound 144] | – | – | – | minimal effective dose [1, 7]: > 10 mg/kg; ED50 [2, 8]: > 10 mg/kg; IC50 ([3]; Table 5): 28 nM
O=C1CCN2C(=C1C(=O)Nc1ccccc1)Nc1cc(Cl)ccc12 [compound 81] | 10 mg/kg | > 10 mg/kg | 66 nM | –
Cc1ccccc1NC(=O)C1=C2Nc3ccccc3N2CCC1=O [compound 31] | 10 mg/kg | > 30 mg/kg | 230 nM | –
O=C1CCN2C(=C1C(=O)Nc1ccccc1F)Nc1cc(Cl)ccc12 [compound 113] | < 10 mg/kg | 1 mg/kg | 5 nM | –
O=C1CCN2C(=C1C(=O)Nc1ccccc1F)N(Cc1ccccc1)c1ccccc12 [compound 128] | – | – | – | minimal effective dose [1, 9]: > 10 mg/kg; ED50 [2, 10]: 1 mg/kg; IC50 ([3]; Table 3): 88 nM
O=C(Nc1ccccc1F)c1c(=O)ccn2c1[nH]c1ccccc12 [compound 139] | – | – | – | minimal effective dose [1, 11]: 0.1 mg/kg; ED50 [2, 12]: 0.3 mg/kg; IC50 ([3]; Table 4): 0.23 nM
O=C1CCN2C(=C1C(=O)Nc1cccnc1Cl)Nc1ccccc12 [compound 70] | 10 mg/kg | 3 mg/kg | 68 nM | –
O=C1CCCN2C(=C1C(=O)Nc1ccc(F)cc1F)N(Cc1ccccc1)c1ccccc12 [compound 156] | – | – | – | minimal effective dose [1, 7]: > 10 mg/kg; ED50 [2, 8]: > 10 mg/kg; IC50 ([3]; Table 5): 330 nM
O=C1CCN2C(=C1C(=O)Nc1c(Cl)cccc1Cl)Nc1ccccc12 [compound 14] | > 10 mg/kg | 30 mg/kg | 320 nM | –
CCN(CC)c1ccc(NC(=O)C2=C3Nc4ccccc4N3CCC2=O)cc1 [compound 71] | > 10 mg/kg | 3 mg/kg | 1800 nM | –

Compound | minimal effective dose [1, 4] | ED50 [2, 5] | IC50 [3, 6] | further results
O=C1CCCN2C(=C1C(=O)Nc1ccccc1)Nc1ccccc12 [compound 143] | – | – | – | minimal effective dose [1, 7]: 10 mg/kg; ED50 [2, 8]: > 10 mg/kg; IC50 ([3]; Table 5): 104 nM
O=C1CCN2C(=C1C(=O)Nc1c(Cl)c(F)nc(F)c1Cl)Nc1ccccc12 [compound 67] | 10 mg/kg | 10 mg/kg | 10000 nM | –
O=C1CCN2C(=C1C(=O)Nc1ccc3ncccc3c1)Nc1ccccc12 [compound 41] | > 10 mg/kg | > 30 mg/kg | 130 nM | –
O=C1CCN2C(=C1C(=O)Nc1ncncn1)Nc1ccccc12 [compound 53] | > 10 mg/kg | > 10 mg/kg | 110 nM | –
Cc1cnccc1NC(=O)C1=C2Nc3ccccc3N2CCC1=O [compound 77] | > 10 mg/kg | > 10 mg/kg | 7100 nM | –
N-(2,6-Difluorophenyl)-3-hydroxypyrido(1,2-a)benzimidazole-4-carboxamide [CP 141] | – | – | 140 nM | Conflict (ip) MED ([1]; Table 1, ip, minimum effective dose, >10 = active dose not determined): 10 mg/kg; Metrazol (ip) ED50 ([2]; Table 1, ip, clonic convulsions after sc CD90 metrazol, >30 = active dose not determined, 30 min): 10 mg/kg
O=C1CCCN2C(=C1C(=O)Nc1ccccc1F)Nc1ccccc12 [compound 146] | – | – | – | minimal effective dose [1, 7]: 10 mg/kg; ED50 [2, 8]: 1 to 10 mg/kg; IC50 ([3]; Table 5): 3.1 nM
CCN1C2=C(C(=O)Nc3ccccc3)C(=O)CCN2c2ccccc21 [compound 121] | – | – | – | minimal effective dose [1, 9]: < 1 mg/kg; ED50 [2, 10]: < 1 mg/kg; IC50 ([3]; Table 3): < 0.1 nM
Cc1cc(NC(=O)C2=C3Nc4ccccc4N3CCC2=O)on1 [compound 68] | > 10 mg/kg | > 10 mg/kg | 54 nM | –
O=C1CCN2C(=C1C(=O)Nc1ccccc1)N(Cc1ccccc1)c1ccccc12 [compound 127] | – | – | – | minimal effective dose [1, 9]: 10 mg/kg; ED50 [2, 10]: 3 mg/kg; IC50 ([3]; Table 3): 12 nM
O=C1CCN2C(=C1C(=O)Nc1c(F)cc(F)cc1F)Nc1ccccc12 [compound 93] | 3 mg/kg | 1 mg/kg | 15 nM | –
Cc1cc(NC(=O)C2=C3Nc4ccccc4N3CCC2=O)c2ccccc2n1 [compound 76] | > 10 mg/kg | 10 mg/kg | 10000 nM | –
O=C1CCN2C(=C1C(=O)Nc1ccncc1Cl)Nc1ccccc12 [compound 75] | > 10 mg/kg | 1 to 10 mg/kg | 220 nM | –
NS(=O)(=O)c1ccc(NC(=O)C2=C3Nc4ccccc4N3CCC2=O)cc1 [compound 61] | 10 mg/kg | > 10 mg/kg | 10000 nM | –
Cn1c2ccccc2n2ccc(=O)c(C(=O)Nc3ccccc3)c12 [compound 142] | – | – | – | minimal effective dose [1, 11]: < 1 mg/kg; ED50 [2, 12]: < 1 mg/kg; IC50 ([3]; Table 4): 45 nM
O=C(Nc1ccncc1)c1c(=O)ccn2c1[nH]c1ccccc12 [compound 140] | – | – | – | minimal effective dose [1, 11]: > 10 mg/kg; ED50 [2, 12]: > 10 mg/kg; IC50 ([3]; Table 4): 260 nM
Cc1nnc(NC(=O)C2=C3Nc4ccccc4N3CCC2=O)s1 [compound 64] | > 10 mg/kg | > 10 mg/kg | 1100 nM | –
O=C1CCN2C(=C1C(=O)NCCc1ccccc1)Nc1ccccc12 [compound 2] | > 10 mg/kg | 10 to 30 mg/kg | 280 nM | –
O=C1CCN2C(=C1C(=O)NC1CC1)Nc1ccccc12 [compound 43] | > 10 mg/kg | > 10 mg/kg | 16 nM | –
O=C1CCN2C(=C1C(=O)Nc1c(F)cccc1F)Nc1ccccc12 [compound 36] | 0.1 mg/kg | 1 mg/kg | 2.8 nM | –
COc1ccccc1NC(=O)C1=C2Nc3ccccc3N2CCC1=O [compound 26] | > 10 mg/kg | > 10 mg/kg | 990 nM | –
CCN1C2=C(C(=O)Nc3ccncc3)C(=O)CCN2c2ccccc21 [compound 133] | – | – | – | minimal effective dose [1, 9]: 3 mg/kg; ED50 [2, 10]: 3 mg/kg; IC50 ([3]; Table 3): 80 nM
